Measured values published in patent US20210239681A1, “COMPOSITIONS AND METHODS FOR […] OF […]-BASED IMMUNOTHERAPEUTICS” (ADVAXIS, INC., priority 2018, published 2021).

How the values were obtained:
Assay type in all cases: cell-based, human
9mer specific T cells = assay: Co-culture of THP-1 with 9mer specific T cells, cytokine production; set-up: IFNγ / IL-10 / IL-12p70 / IL-13 / IL-1β / IL-2 / IL-5 / IL-6 / TNF-α: unit not given here; conditions: for IFNγ production, with 9mer specific T cells: Listeria MOI of 10, optical density
Description: (§1) Analysis Kits and Reagents: Analysis of cytokine concentrations in culture medium used the U-plex assay kits from Meso Scale Discovery. Expression of T cell receptors specific for E7 peptide bound to HLA-A*02:01 was detected using HLA-A*02:01/peptide tetramers from MBL International (Woburn, Mass.).
(§2) There were several possible explanations for the muted response with THP-1 cells infected with ADSX11: including failure of THP-1 cells to process the 10mer epitope from full length E7 protein, failure of the THP-1 cells to present the processed 10mer E7 peptide on HLA-A*02:01, insufficient incubation of the infected cells to allow synthesis of the E7 protein and accumulation of the MHC/peptide complex on the cell surface, and/or an inhibitory effect of gentamicin. A culture of T cells specific for the 9mer epitope was used as well as a new culture of 10mer specific T cells. The THP-1 cells were infected as before with XFL7 or ADXS11-001 at an MOI of 10. After treatment with gentamicin for one hour, the cells were cultured overnight in the absence of gentamicin. The next day the infected cells were collected and co-cultured with 9mer or 10mer specific T cells. These co-cultures were set up in standard X-VIVO 15 and X-VIVO 15 without gentamicin or phenol red. The co-cultures were incubated overnight before collecting medium for cytokine analysis. The medium was tested for IFNγ concentrations and optical density. […] In addition, the 10mer specific T cells recognized ADXS11-001 infected THP-1 when there was no gentamicin in the medium.
(§3) To further explore the importance of the overnight incubation of infected THP-1, THP-1 cells infected overnight were compared to THP-1 cells infected for 2 hours. T cells specific for 9mer and 10mer peptides were co-cultured with each of the THP-1 cells and with uninfected or peptide exposed THP-1. As before, medium was collected after an overnight co-culture and cytokines were measured.
(§4) Optimization of infection time required for E7 presentation. THP-1 infected and cultured overnight compared to THP-1 infected for 2 hours and used after gentamicin treatment. Both 9-mer specific T cells and 10-mer specific T cells used. Assays were performed using X-VIVO 15 medium without gentamicin. The following cytokines were measured: IFNγ, IL-1β, IL-2, IL-10, IL-12p70, IL-13, IL-5, IL-6, TNFα.

T cells = assay: Intracellular cytokine staining of T cells; conditions: Brefeldin A, FIG. 9
Description: To identify cytokines that can be used to measure potency of a Listeria-based therapeutic the following tests were performed. Intracellular cytokine staining was used to detect T cells specificity. THP-1 were incubated with peptide overnight, mixed with T cells from above and centrifuged. The collected cells were then co-cultured at 37° C. for 1 hour. Brefeldin A was then added and the cells were co-cultured for another 4 hours. Brefeldin A inhibits secretion and permits analysis by flow cytometry. Cell were then stained to identify dead cells and CD8+ cells. The cell were then fixed and stained for IFNγ (using fix and permeabilization buffer from eBioscience/Invitrogen).

10mer specific T cells = assay: Co-culture of THP-1 with 10mer specific T cells, cytokine production; set-up: IFNγ / IL-10 / IL-13 / IL-1β / IL-2 / IL-5 / IL-6 / TNF-α: unit not given here; conditions: for IFNγ production, with 10mer specific T cells: Listeria MOI of 10, optical density
Description: as §1, §2, §3, §4

[1] = tested on: E7 (11-20) specific T cells; assay: Initial THP-1 / T cell co-culture cytokine production (T cell culture with 6% E7 (11-20) specific T cells); set-up: IFNγ / TNF-α / IL-10 / IL-12p70 / IL-13 / IL-1β / IL-2 / IL-4 / IL-6 / IL-8: unit not given here
Description: as §1
Infection of THP-1: The THP-1 cell line was infected with either ADXS11-001 or XFL7 by incubating 10^6 cells with dilutions of bacteria in a 1 mL volume of RPMI 1640 10% FBS. Incubation with bacteria was at 37° C., 5% CO2 for the indicated times, then extracellular bacteria were eliminated by washing and incubation in the presence of 50 μg/mL gentamicin for 1 hour at 37° C. After incubation with gentamicin the cells were washed again and resuspended to the desired cell concentration.
T cell cytokine expression analysis. An initial experiment using THP-1 as antigen presenting cells was performed using a T cell culture containing 6% E7 (11-20) specific T cells based upon staining with HLA-A*02:01/peptide tetramer. THP-1 cells were infected as described using two different concentrations of bacteria and then co-cultured with the T cells. Controls included uninfected THP-1 cells and THP-1 cells incubated with (exposed to) either the 9mer or 10mer peptide for one hour. After an overnight co-culture, medium was collected for analysis of cytokines.

THP-1 cells = assay: Cytokine production by THP-1 in the absence of T cells; conditions: Without gentamicin; Listeria MOI of 10; optical density
[2] = 9mer T cells + peptide exposed THP-1, overnight co-culture
[3] = 10mer T cells + peptide exposed THP-1, overnight co-culture
[4] = T cells and THP-1 incubated with peptide one hour, overnight co-culture

For YMLDLQPETT [10mer], which “IFNγ production, with 9mer specific T cells” value (9mer specific T cells; 50 μg/mL gentamicin) is on record?
Its value is 0.075.

And the IFNγ (9mer specific T cells; [2])?
Its IFNγ is 112.

What about the IL-1β (9mer specific T cells; [2]) of the same sequence?
Its IL-1β is “<LLOD”.

And the IL-2 (9mer specific T cells; [2])?
The IL-2 was 3.

What about the IL-5 (9mer specific T cells; [2]) of the same sequence?
Its IL-5 is “<LLOD”.

What about the IL-6 (9mer specific T cells; [2]) of the same sequence?
The IL-6 was 0.

What about the IL-10 (9mer specific T cells; [2]) of the same sequence?
The IL-10 was “<LLOD”.

What about the IL-12p70 (9mer specific T cells; [2]) of the same sequence?
The IL-12p70 was 0.

And the IL-13 (9mer specific T cells; [2])?
The IL-13 was “<LLOD”.

And the TNF-α (9mer specific T cells; [2])?
The TNF-α was 2.

And the “IFNγ production, with 9mer specific T cells” value (9mer specific T cells; Without gentamicin)?
The value was 0.066.

What about the “IFNγ in T cells after stimulation with peptide” value (T cells) of the same sequence?
Its value is “higher levels of IFNγ”.

What about the “IFNγ production, with 10mer specific T cells” value (10mer specific T cells; 50 μg/mL gentamicin) of the same sequence?
Its value is 0.226.

What about the IFNγ (10mer specific T cells; [3]) of the same sequence?
Its IFNγ is 23328.

What about the IL-1β (10mer specific T cells; [3]) of the same sequence?
Its IL-1β is 3.

What about the IL-2 (10mer specific T cells; [3]) of the same sequence?
The IL-2 was 452.

And the IL-5 (10mer specific T cells; [3])?
Its IL-5 is 1.

And the IL-6 (10mer specific T cells; [3])?
Its IL-6 is 31.

What about the IL-10 (10mer specific T cells; [3]) of the same sequence?
The IL-10 was 12.

What about the IL-12p70 (10mer specific T cells; [3]) of the same sequence?
Its IL-12p70 is “<LLOD”.

What about the IL-13 (10mer specific T cells; [3]) of the same sequence?
The IL-13 was 23.

And the TNF-α (10mer specific T cells; [3])?
The TNF-α was 460.

And the “IFNγ production, with 10mer specific T cells” value (10mer specific T cells; Without gentamicin)?
The value was 0.200.

What about the IFNγ [1, 4] of the same sequence?
The IFNγ was 17140.7.

What about the IL-1β [1, 4] of the same sequence?
Its IL-1β is 7.0.

And the IL-2 [1, 4]?
The IL-2 was 315.2.

And the IL-4 [1, 4]?
The IL-4 was 11.9.

And the IL-6 [1, 4]?
Its IL-6 is 19.6.

And the IL-8 [1, 4]?
The IL-8 was 6099.7.

And the IL-10 [1, 4]?
Its IL-10 is 34.0.

What about the IL-12p70 [1, 4] of the same sequence?
The IL-12p70 was 7.4.

What about the IL-13 [1, 4] of the same sequence?
Its IL-13 is 508.4.

And the TNF-α [1, 4]?
Its TNF-α is 1192.3.

What about the “T cell cytokine response to peptide presented by THP-1” value ([1]; relative to T cells co-cultured with control or uninfected THP-1 cells) of the same sequence?
The value was “elevated levels of IFNγ, IL-13, IL-2, IL-8 and TNFα”.

And the “IFNγ production, THP-1 alone” value (THP-1 cells)?
The value was 0.062.
